Measurements taken from patent publication EP4806898A1, “HETEROARYL DERIVATIVE COMPOUND AND USE THEREOF” (Voronoi Inc., priority 2023, dated 2025).

What was measured:
[1] = target: T1, recombinant USP1 protein (Homo sapiens, UniProt O94782, DEL125-138/DEL229-408/DEL608-737); experiment: Binding affinity to recombinant USP1 protein by differential scanning fluorimetry; settings: compound 100 µM; 0.03 mg/mL USP1 (Δ1-66, Δ125-138, Δ229-408, Δ608-737); Tm with compound minus Tm with DMSO; read-out: ΔTm (°C)
T1 sequence (O94782 with tags, fused parts or gaps DEL125-138/DEL229-408/DEL608-737): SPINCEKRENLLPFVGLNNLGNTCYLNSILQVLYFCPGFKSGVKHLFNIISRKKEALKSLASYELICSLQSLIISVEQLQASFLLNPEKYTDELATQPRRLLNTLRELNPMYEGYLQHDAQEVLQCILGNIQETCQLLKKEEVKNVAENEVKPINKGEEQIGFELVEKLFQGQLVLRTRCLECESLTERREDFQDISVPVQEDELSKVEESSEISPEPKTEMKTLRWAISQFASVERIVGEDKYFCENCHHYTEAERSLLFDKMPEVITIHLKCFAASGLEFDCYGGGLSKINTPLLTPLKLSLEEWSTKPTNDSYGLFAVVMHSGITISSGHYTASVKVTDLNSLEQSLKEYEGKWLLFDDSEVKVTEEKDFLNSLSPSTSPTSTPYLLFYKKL
Method in brief: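 USP1 (Δ1-66, Δ125-138, Δ229-408, Δ608-737) at 0.03 mg/mL with dye in 50 mM Tris-HCl pH 8.0, 150 mM NaCl, 2% glycerol, 1 mM DTT; compounds at 100 µM final. Tm read on real-time PCR instrument; ΔTm = Tm with compound minus Tm with DMSO.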

[2] = test system: UWB1.289 cells; experiment: Cell proliferation inhibitory activity in BRCA1/2-mutant or HRD-positive cells (Cell Titer-Glo); type: cell-based; settings: UWB1289; UWB1.289 cells, 144 hours after compound treatment, Cell Titer-Glo, 1.5 nM to 10 µM; read-out: GI50 UWB1.289 BRCA1 mut
Method in brief: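 UWB1.289 cells (1,000/well) in 50% MEBM/50% RPMI1640 exposed to […], final 1.5 nM to 10 µM, for 144 h at 37 °C. Viable cells measured by CellTiter-Glo luminescence; GI50 calculated.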

Compound	ΔTm at 100 µM [1] [°C]	GI50 [2] [nM]
COc1ncnc(C2CC2)c1-c1ncc2cc(C(=O)N[C@H](CO)C(C)C)n(Cc3ccc(-c4nc(C(F)(F)F)cn4C(C)C)cc3)c2n1 [Example 155, (S)-2-(4-cyclopropyl-6-methoxypyrimidin-5-yl)-N-(1-hydroxy-3-methylbutan-2-yl)-7-(4-(1-isopropyl-4-(trifluoromethyl)-1H-imidazol-2-yl)benzyl)-7H-pyrrolo[2,3-d]pyrimidine-6-carboxamide]	> 5	< 100
COc1ncnc(C2CC2)c1-c1ncc2cc(C(=O)NC(C)(C)CO)n(Cc3ccc(-c4nc(C(F)(F)F)cn4C(C)C)cc3)c2n1 [Example 156, 2-(4-cyclopropyl-6-methoxypyrimidin-5-yl)-N-(1-hydroxy-2-methylpropan-2-yl)-7-(4-(1-isopropyl-4-(trifluoromethyl)-1H-imidazol-2-yl)benzyl)-7H-pyrrolo[2,3-d]pyrimidine-6-carboxamide]	> 5	< 100
COc1ncnc(C2CC2)c1-c1ncc2cc(C(=O)NCCO)n(Cc3ccc(-c4nc(C(F)(F)F)cn4C(C)C)cc3)c2n1 [Example 157, 2-(4-cyclopropyl-6-methoxypyrimidin-5-yl)-N-(2-hydroxyethyl)-7-(4-(1-isopropyl-4-(trifluoromethyl)-1H-imidazol-2-yl)benzyl)-7H-pyrrolo[2,3-d]pyrimidine-6-carboxamide]	> 5	< 100
COc1ncnc(C2CC2)c1-c1ncc2cc(C(=O)NC3CCC(N(C)C)CC3)n(Cc3ccc(-c4nc(C(F)(F)F)cn4C(C)C)cc3)c2n1 (stereo not shown) [Example 158, 2-(4-cyclopropyl-6-methoxypyrimidin-5-yl)-N-(4-(dimethylamino)cyclohexyl)-7-(4-(1-isopropyl-4-(trifluoromethyl)-1H-imidazol-2-yl)benzyl)-7H-pyrrolo[2,3-d]pyrimidine-6-carboxamide]	> 5	< 100
COc1ncnc(C2CC2)c1-c1ncc2cc(C(=O)N[C@@H]3CCN(C)C[C@@H]3F)n(Cc3ccc(-c4nc(C(F)(F)F)cn4C)cc3)c2n1 [Example 161, 2-(4-cyclopropyl-6-methoxypyrimidin-5-yl)-N-((3S,4R)-3-fluoro-1-methylpiperidin-4-yl)-7-(4-(1-methyl-4-(trifluoromethyl)-1H-imidazol-2-yl)benzyl)-7H-pyrrolo[2,3-d]pyrimidine-6-carboxamide]	> 5	< 100
COc1ncnc(C2CC2)c1-c1ncc2cc(C(=O)N[C@H]3CCN(C)C[C@H]3F)n(Cc3ccc(-c4nc(C(F)(F)F)cn4C)cc3)c2n1 [Example 162, 2-(4-cyclopropyl-6-methoxypyrimidin-5-yl)-N-((3R, 4S) -3-fluoro-1-methylpiperidin-4-yl)-7-(4-(1-methyl-4-(trifluoromethyl)-1H-imidazol-2-yl)benzyl)-7H-pyrrolo[2,3-d]pyrimidine-6-carboxamide]	> 5	< 100
COc1ncnc(C2CC2)c1-c1ncc2cc(C(=O)NC[C@@H](C)O)n(Cc3ccc(-c4nc(C(F)(F)F)cn4C)cc3)c2n1 [Example 163, (R)-2-(4-cyclopropyl-6-methoxypyrimidin-5-yl)-N-(2-hydroxypropyl) -7-(4-(1-methyl-4-(trifluoromethyl)-1H-imidazol-2-yl)benzyl)-7H-pyrrolo[2,3-d]pyrimidine-6-carboxamide]	> 5	< 100
COc1ncnc(C2CC2)c1-c1ncc2cc(C(=O)NC[C@H](C)O)n(Cc3ccc(-c4nc(C(F)(F)F)cn4C)cc3)c2n1 [Example 164, (S)-2-(4-cyclopropyl-6-methoxypyrimidin-5-yl)-N-(2-hydroxypropyl) -7-(4-(1-methyl-4-(trifluoromethyl)-1H-imidazol-2-yl)benzyl)-7H-pyrrolo[2,3-d]pyrimidine-6-carboxamide]	> 5	< 100
